Results taken from patent EP0013144A1, “Substituted diphenylamine derivatives, compositions and herbicidal uses thereof, and processes for their preparation” (ICI AUSTRALIA LIMITED, priority 1978, dated 1980).

The molecules below were run on Mustard (assay: Pre-emergence herbicidal activity (Example 31)). Details: 1 kg/ha, after three weeks.
Type: in vivo
Summary of the method: (§1)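 Visual damage score at three weeks: 0 = 0–25% damage, 3 = 75–99% kill, 3+ = 100% kill. Soil boxes with seeds sown 2 cm deep were sprayed before emergence with water-diluted emulsifiable concentrate or suspension, then grown in a glasshouse alongside unsprayed controls.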

Row | SMILES | damage to plants, Ms
1 | COC(=O)C(C)Oc1ccc(N(C)c2ccc(Cl)cc2Cl)cc1 (centres unmarked) [Compound 1, Methyl 2-[4-(2,4-dichloro-N-methylanilino)phenoxy]-propionate] | 0 (0 represents from 0 to 25% damage)

Same assay, conditions: 5 kg/ha, after three weeks

Row | SMILES | damage to plants, Ms
2 | COC(=O)C(C)Oc1ccc(N(C)c2ccc(Cl)cc2Cl)cc1 (centres unmarked) [Compound 1, Methyl 2-[4-(2,4-dichloro-N-methylanilino)phenoxy]-propionate] | 0 (0 represents from 0 to 25% damage)

What follows are molecules tested on Wild Oats (assay: Pre-emergence herbicidal activity (Example 31)). Details: 1 kg/ha, after three weeks.
Type: in vivo
Summary of the method: as §1

Row | SMILES | damage to plants, Ot
3 | COC(=O)C(C)Oc1ccc(N(C)c2ccc(Cl)cc2Cl)cc1 (centres unmarked) [Compound 1, Methyl 2-[4-(2,4-dichloro-N-methylanilino)phenoxy]-propionate] | 0 (0 represents from 0 to 25% damage)

Same assay, conditions: 5 kg/ha, after three weeks

Row | SMILES | damage to plants, Ot
4 | COC(=O)C(C)Oc1ccc(N(C)c2ccc(Cl)cc2Cl)cc1 (centres unmarked) [Compound 1, Methyl 2-[4-(2,4-dichloro-N-methylanilino)phenoxy]-propionate] | 0 (0 represents from 0 to 25% damage)

What follows are molecules tested on Japanese millet (assay: Pre-emergence herbicidal activity (Example 31)). Details: 1 kg/ha, after three weeks.
Type: in vivo
Summary of the method: as §1

Row | SMILES | damage to plants, Jm
5 | COC(=O)C(C)Oc1ccc(N(C)c2ccc(Cl)cc2Cl)cc1 (centres unmarked) [Compound 1, Methyl 2-[4-(2,4-dichloro-N-methylanilino)phenoxy]-propionate] | 0 (0 represents from 0 to 25% damage)

Same assay, conditions: 5 kg/ha, after three weeks

Row | SMILES | damage to plants, Jm
6 | COC(=O)C(C)Oc1ccc(N(C)c2ccc(Cl)cc2Cl)cc1 (centres unmarked) [Compound 1, Methyl 2-[4-(2,4-dichloro-N-methylanilino)phenoxy]-propionate] | 0 (0 represents from 0 to 25% damage)

These molecules were tested on Ipomea (assay: Pre-emergence herbicidal activity (Example 31)). Details: 1 kg/ha, after three weeks.
Type: in vivo
Summary of the method: as §1

Row | SMILES | damage to plants, Ip
7 | COC(=O)C(C)Oc1ccc(N(C)c2ccc(Cl)cc2Cl)cc1 (centres unmarked) [Compound 1, Methyl 2-[4-(2,4-dichloro-N-methylanilino)phenoxy]-propionate] | 0 (0 represents from 0 to 25% damage)

Same assay, conditions: 5 kg/ha, after three weeks

Row | SMILES | damage to plants, Ip
8 | COC(=O)C(C)Oc1ccc(N(C)c2ccc(Cl)cc2Cl)cc1 (centres unmarked) [Compound 1, Methyl 2-[4-(2,4-dichloro-N-methylanilino)phenoxy]-propionate] | 0 (0 represents from 0 to 25% damage)

These molecules were tested on Sunflower (assay: Pre-emergence herbicidal activity (Example 31)). Details: 1 kg/ha, after three weeks.
Type: in vivo
Summary of the method: as §1

Row | SMILES | damage to plants, Sf
9 | COC(=O)C(C)Oc1ccc(N(C)c2ccc(Cl)cc2Cl)cc1 (centres unmarked) [Compound 1, Methyl 2-[4-(2,4-dichloro-N-methylanilino)phenoxy]-propionate] | 0 (0 represents from 0 to 25% damage)

Same assay, conditions: 5 kg/ha, after three weeks

Row | SMILES | damage to plants, Sf
10 | COC(=O)C(C)Oc1ccc(N(C)c2ccc(Cl)cc2Cl)cc1 (centres unmarked) [Compound 1, Methyl 2-[4-(2,4-dichloro-N-methylanilino)phenoxy]-propionate] | 0 (0 represents from 0 to 25% damage)

What follows are molecules tested on Soy bean (assay: Pre-emergence herbicidal test, fibre trays (Example 33)). Details: 2.0 kg/ha, after 21 days.
Type: in vivo
Summary of the method: (§2)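 Scoring used a 0–5 scale (0 = 0–20% damage, 5 = complete kill) against untreated controls: day 21 for seeds sown in fibre trays, sprayed, then topped with soil; day 14 for sprayed young pot plants. Sprays were 40 ml aqueous dilutions of a surfactant/methylcyclohexanone emulsion.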

Row | SMILES | herbicidal damage, Sy
11 | COC(=O)C(C)Oc1ccc(N(C)c2ccc(Cl)cc2Cl)cc1 (centres unmarked) [Compound 1, Methyl 2-[4-(2,4-dichloro-N-methylanilino)phenoxy]-propionate] | 2

Each molecule was assayed on Senecio vulgaris in the same assay as above. Details: 2.0 kg/ha, after 21 days.
Type: in vivo
Summary of the method: as §2

Row | SMILES | herbicidal damage, Sn
12 | COC(=O)C(C)Oc1ccc(N(C)c2ccc(Cl)cc2Cl)cc1 (centres unmarked) [Compound 1, Methyl 2-[4-(2,4-dichloro-N-methylanilino)phenoxy]-propionate] | 0 (0 is 0 to 20% damage)

What follows are molecules tested on Rape in the same assay as above. Details: 2.0 kg/ha, after 21 days.
Type: in vivo
Summary of the method: as §2

Row | SMILES | herbicidal damage, Rp
13 | COC(=O)C(C)Oc1ccc(N(C)c2ccc(Cl)cc2Cl)cc1 (centres unmarked) [Compound 1, Methyl 2-[4-(2,4-dichloro-N-methylanilino)phenoxy]-propionate] | 2

These molecules were tested on Ipomea purpurea in the same assay as above. Details: 2.0 kg/ha, after 21 days.
Type: in vivo
Summary of the method: as §2

Row | SMILES | herbicidal damage, Ip
14 | COC(=O)C(C)Oc1ccc(N(C)c2ccc(Cl)cc2Cl)cc1 (centres unmarked) [Compound 1, Methyl 2-[4-(2,4-dichloro-N-methylanilino)phenoxy]-propionate] | 0 (0 is 0 to 20% damage)

What follows are molecules tested on Winter wheat in the same assay as above. Details: 2.0 kg/ha, after 21 days.
Type: in vivo
Summary of the method: as §2

Row | SMILES | herbicidal damage, Ww
15 | COC(=O)C(C)Oc1ccc(N(C)c2ccc(Cl)cc2Cl)cc1 (centres unmarked) [Compound 1, Methyl 2-[4-(2,4-dichloro-N-methylanilino)phenoxy]-propionate] | 0 (0 is 0 to 20% damage)

Each molecule was assayed on Wheat (assay: Pre-emergence herbicidal activity (Example 31)). Details: 1 kg/ha, after three weeks.
Type: in vivo
Set-up: key: 0-3 scale: 0 = 0-25% damage, 3 = 75-99% kill, 3+ = 100% kill
Summary of the method: as §1

Row | SMILES | damage to plants, Wh
16 | COC(=O)C(C)Oc1ccc(N(C)c2ccc(Cl)cc2Cl)cc1 (centres unmarked) [Compound 1, Methyl 2-[4-(2,4-dichloro-N-methylanilino)phenoxy]-propionate] | 0 (0 represents from 0 to 25% damage)

Same assay, conditions: 5 kg/ha, after three weeks

Row | SMILES | damage to plants, Wh
17 | COC(=O)C(C)Oc1ccc(N(C)c2ccc(Cl)cc2Cl)cc1 (centres unmarked) [Compound 1, Methyl 2-[4-(2,4-dichloro-N-methylanilino)phenoxy]-propionate] | 0 (0 represents from 0 to 25% damage)

What follows are molecules tested on Senecio vulgaris (assay: Post-emergence herbicidal test, young pot plants (Example 33)). Details: 2.0 kg/ha, after 14 days.
Type: in vivo
Summary of the method: as §2

Row | SMILES | damage to test plants, Sn
18 | COC(=O)C(C)Oc1ccc(N(C)c2ccc(Cl)cc2Cl)cc1 (centres unmarked) [Compound 1, Methyl 2-[4-(2,4-dichloro-N-methylanilino)phenoxy]-propionate] | 1

These molecules were tested on Rape in the same assay as above. Details: 2.0 kg/ha, after 14 days.
Type: in vivo
Summary of the method: as §2

Row | SMILES | damage to test plants, Rp
19 | COC(=O)C(C)Oc1ccc(N(C)c2ccc(Cl)cc2Cl)cc1 (centres unmarked) [Compound 1, Methyl 2-[4-(2,4-dichloro-N-methylanilino)phenoxy]-propionate] | 2

The molecules below were run on Polygonum aviculare in the same assay as above. Details: 2.0 kg/ha, after 14 days.
Type: in vivo
Summary of the method: as §2

Row | SMILES | damage to test plants, Pi
20 | COC(=O)C(C)Oc1ccc(N(C)c2ccc(Cl)cc2Cl)cc1 (centres unmarked) [Compound 1, Methyl 2-[4-(2,4-dichloro-N-methylanilino)phenoxy]-propionate] | 0 (0 is 0 to 20% damage)
